Test results: patent US20100159093A1, “METHOD OF TREATING FOODSTUFF” (priority 2008, published 2010)

Key:
[1] = test system: psychrotrophs in raw milk; settings: 7° C., closed system, Dechemi et al.; cited from earlier work
[2] = test system: psychrotrophs; experiment: Growth of psychrotrophs in raw milk under nitrogen gas; assay type: cell-based; settings: 12.0° C., N1 environment (120 ml/min)
Experimental: With the device shown in FIG. 1, the effect of nitrogen gas on the natural microflora in raw milk (volume approximately 125 ml) was examined by replacing the air (control) in an open vessel (volume approximately 250 ml) at a constant temperature, with a flow-through of 100% nitrogen gas (purity 99.999%, manufacturer AGA) at two different flow-through rates: N1=120 ml/min, N2=40 ml/min. The temperature of the raw milk in the sample bottles was adjusted by means of the thermostat (14) of the water bath to bring the temperature of the milk to 6.0° C., 7.0° C. or 12.0° C. The temperature variation in the vessel was less than ±0.1° C. The effect of nitrogen gas on the growth of the microflora in a raw milk sample at 12.0° C. Two flow-through rates of the nitrogen gas were used in the study: (▴) 40 ml/min and ([…]) 120 ml/min. […] The following bacterial levels were determined in the samples: The effect of nitrogen gas on the growth of the microflora in a raw milk sample at 12.0° C. Two flow-through rates of the nitrogen gas were used in the study: (▴) 40 ml/min and ([…]) 120 ml/min. […] The following bacterial levels were determined in the samples: […]

[3] = test system: natural microflora in raw milk (total bacteria count); experiment: Growth of the natural microflora (total bacteria count) in raw milk under nitrogen gas; assay type: cell-based
Experimental: With the device shown in FIG. 1, the effect of nitrogen gas on the natural microflora in raw milk (volume approximately 125 ml) was examined by replacing the air (control) in an open vessel (volume approximately 250 ml) at a constant temperature, with a flow-through of 100% nitrogen gas (purity 99.999%, manufacturer AGA) at two different flow-through rates: N1=120 ml/min, N2=40 ml/min. The apparatus comprises a nitrogen source (1), which is connected by means of a flow channel (2) to two sample bottles (3 and 4). The device also comprises a bottle (5) which contains a reference sample. Filters (6a, 6b, 7a, 7b and 8a, 8b) are connected to the gas flow channels (2), which are made of silicon pipe/hose. The pore size of the filters is 0.2 μm. A flow meter is attached to the flow channels (2), in order to allow the rate at which the gas flows are to be adjusted. The sample bottles are placed in a water bath (10). […] and magnetic mixers (12) are used to mix the contents of the bottles. The water of the water bath (10) is cooled with a cooling coil (11) which is connected to a cooling unit (13), and the entire test apparatus is placed in a cold store, the temperature of which is 5° C. (except the nitrogen bottle). The water temperature of the water bath (10) is adjusted to a desired temperature with the help of an adjustable submersible thermostat (14). The temperature of the raw milk in the sample bottles was adjusted by means of the thermostat (14) of the water bath to bring the temperature of the milk to 6.0° C., 7.0° C. or 12.0° C. The temperature variation in the vessel was less than ±0.1° C. […] The effect of nitrogen gas on the growth of the microflora in a raw milk sample at 6.0° C. Two flow-through rates of the nitrogen gas were used in the study: (▴) 40 ml/min and ([…])120 ml/min. […] The following bacterial levels were determined in the samples: The effect of nitrogen gas on the growth of the microflora in a raw milk sample at 7.0° C. Two flow-through rates of the nitrogen gas were used in the study: (▴) 40 ml/min and ([…])120 ml/min. […] The following bacterial levels were determined in the samples: The effect of nitrogen gas on the growth of the microflora in a raw milk sample at 12.0° C. Two flow-through rates of the nitrogen gas were used in the study: (▴) 40 ml/min and ([…]) 120 ml/min. […] The following bacterial levels were determined in the samples: […]

[4] = test system: aerobic spores, such as B. cereus; experiment: Aerobic spore count in raw milk under nitrogen gas; assay type: cell-based; settings: 12.0° C., N1 environment (120 ml/min), Example 5, FIG. 5F
Experimental: With the device shown in FIG. 1, the effect of nitrogen gas on the natural microflora in raw milk (volume approximately 125 ml) was examined by replacing the air (control) in an open vessel (volume approximately 250 ml) at a constant temperature, with a flow-through of 100% nitrogen gas (purity 99.999%, manufacturer AGA) at two different flow-through rates: N1=120 ml/min, N2=40 ml/min.
The temperature of the raw milk in the sample bottles was adjusted by means of the thermostat (14) of the water bath to bring the temperature of the milk to 6.0° C., 7.0° C. or 12.0° C. The temperature variation in the vessel was less than ±0.1° C.
The effect of nitrogen gas on the growth of the microflora in a raw milk sample at 12.0° C. Two flow-through rates of the nitrogen gas were used in the study: (▴) 40 ml/min and ([…]) 120 ml/min. […] The following bacterial levels were determined in the samples:
FIG. 5A: Total bacteria count (p.m.y./ml) FIG. 5B: Total number of psychrotrophs (p.m.y./ml) FIG. 5C: Total number of proteolytic bacteria (p.m.y./ml) FIG. 5D: Total number of lipolytic bacteria (p.m.y./ml) FIG. 5E: Total number of bacteria producing phospholipase (p.m.y./ml). […]

[5] = 6.0° C., N2 environment (40 ml/min)

## N#N [nitrogen gas]
[1]
  effect of inhibiting the protease activity, among the gas alternatives tested: neither the best nor the worst one
  preventing the growth of the microbes and inhibiting the lipase activity, among the protecting gases used: least effective
[2]; Example 4 sample
  growth of the psychrotrophs: no longer prevents the growth of the psychrotrophs, instead it delays it
[2]; Example 5 sample
  growth of the psychrotrophs: substantially delay
[3]; 6.0° C., N1 environment (120 ml/min), measurement period of 11 days
  growth of the bacteria: totally prevents the growth of the bacteria
[3]; [5]
  growth of the microbes: capable of preventing the growth of the microbes for 7 days
  increase of the microbe level during a period of 3 days: less than 1 log-unit
[3]; 7.0° C., N1 environment (120 ml/min), prevents = log increases by less than one unit in 3 days
  total growth/the growth of the microbes: still prevents
[3]; 7.0° C., N2 environment (40 ml/min)
  growth of the total microbial count: delays the growth of the total microbial count, although it cannot totally prevent the growth
[3]; 12.0° C., N1 environment (120 ml/min), Example 4 sample
  growth of the total microbial count: still prevents or nearly prevents the growth of the total microbial count
[3]; 12.0° C., N1 environment (120 ml/min), Example 5 sample
  growth of the total number of the microbes: substantially delay the growth of the total number of the microbes
[4]
  formation (sporulation) of aerobic spores: does not increase the formation (sporulation)
